Consider seven compounds from DBAASP.

Values after ≈ are worked out from the molar mass of the structure shown. Values joined by “and” are separate entries in the source; they are usually repeats but may differ in a detail not shown here. Identical values can stand only once.

Some test systems named below: Escherichia coli UB1005; Escherichia coli K99; Escherichia coli K88; Escherichia coli 078; Candida albicans.
Common to all, as to experiment: ≥ marks a high value that may be exact or a test limit, other limits are often not marked, values filed in µg/mL are converted to µM
Experiment [1] deals with Staphylococcus aureus ATCC 25923.
The test system of experiment [2] is Salmonella enterica subsp. enterica serovar Typhimurium C77-31.
For experiment [3], the system named is Staphylococcus epidermidis ATCC 12228.
The test system of experiment [4] is Candida albicans CGMCC 2.2086.
Experiment [5] concerns Staphylococcus aureus ATCC 43300.
Experiment [6] deals with Pseudomonas aeruginosa ATCC 27853.
The subject of experiment [7] is Candida parapsilosis CGMCC 2.3989.
In experiment [8] the test system is Salmonella enterica subsp. enterica serovar Pullorum ATCC 7913.
For experiment [9], the system named is Salmonella enterica subsp. enterica serovar Typhimurium ATCC 14028.
Experiment [10] concerns Candida tropicalis CGMCC 2.1975.
In experiment [11] the test system is Micrococcus luteus ATCC 49732.
Experiment [12] relates to Candida albicans NCYC 1467.
In experiment [13] the test system is Enterococcus faecalis NCTC 12697.
In experiment [14] the test system is Escherichia coli NCTC 10418.
Experiment [15] has as its system Staphylococcus aureus NCTC 10788.
Experiment [16] concerns Klebsiella pneumoniae ATCC 43816.
Experiment [17] deals with Staphylococcus aureus NCTC 12493.
Experiment [18] deals with Cryptococcus neoformans ATCC 32045.
Experiment [19] has as its system Candida albicans ATCC 10231.
The test system of experiment [20] is Pseudomonas aeruginosa ATCC 10145.
Experiment [21] relates to Staphylococcus aureus ATCC 33591.
The test system of experiment [22] is Escherichia coli ATCC 2592.

Usually MIC stands for the lowest concentration that inhibits growth of the organism. Lower therefore signals greater potency. On to `CC[C@H](C)[C@H](NC(=O)[C@H](CCCN=C(N)N)NC(=O)[C@H](C)NC(=O)[C@H](C)N)C(=O)N[C@H](C(=O)N[C@@H](CC(C)C)C(=O)N[C@@H](CCCN=C(N)N)C(=O)N[C@@H](CCCN=C(N)N)C(=O)N[C@@H](CCCN=C(N)N)C(=O)N[C@@H](Cc1ccccc1)C(=O)N[C@@H](CCCN=C(N)N)C(N)=O)[C@@H](C)CC` [AARIILRRRFR], for which the minimum inhibitory concentration (MIC) was 32 µM (≈ 45.7 µg/mL) in experiment [1]; 8 µM (≈ 11.4 µg/mL) in experiment [2]; 16 µM (≈ 22.8 µg/mL) in the experiment on Escherichia coli UB1005; 16 µM (≈ 22.8 µg/mL) in experiment [3]; at least 128 µM in [4]; 8 µM (≈ 11.4 µg/mL) in the experiment with Escherichia coli K99. Also, the MIC was 16 µM (≈ 22.8 µg/mL) against Escherichia coli K88; 16 µM (≈ 22.8 µg/mL) in experiment [5]; over 128 µM in experiment [6]; at least 64 µM in experiment [7]; 16 µM (≈ 22.8 µg/mL) in [8]; 32 µM (≈ 45.7 µg/mL) in experiment [9]. The values for the MIC (against Escherichia coli 078; in experiment [10]) were 16 µM (≈ 22.8 µg/mL) and at least 64 µM, respectively.
As to `CC[C@H](C)[C@H](NC(=O)[C@H](CO)NC(=O)[C@@H]1CCCN1C(=O)[C@H](CC(C)C)NC(=O)[C@H](CC(C)C)NC(=O)[C@H](CO)NC(=O)[C@H](CC(C)C)NC(=O)[C@@H](N)Cc1ccccc1)C(=O)N[C@H](C(=O)N[C@@H](CO)C(=O)NCC(=O)N[C@@H](C)C(=O)N[C@H](C(=O)N[C@@H](CO)C(=O)N[C@@H](CC(C)C)C(=O)N[C@@H](C)C(=O)N[C@@H](CCCCN)C(=O)N[C@@H](CCCCN)C(=O)N[C@@H](CC(C)C)C(N)=O)C(C)C)C(C)C` [FLSLLPSIVSGAVSLAKKL], the minimum inhibitory concentration (MIC) in [11] turned out to be 1.3 µM (≈ 2.53 µg/mL).
In the case of `CC(C)C[C@H](NC(=O)[C@H](C)NC(=O)CNC(=O)[C@H](CCCN=C(N)N)NC(=O)[C@H](CCCN=C(N)N)NC(=O)[C@H](CCCN=C(N)N)NC(=O)[C@H](CCC(N)=O)NC(=O)[C@H](CCCN=C(N)N)NC(=O)[C@H](CCCN=C(N)N)NC(=O)[C@H](CCCCN)NC(=O)[C@H](CCCCN)NC(=O)[C@H](CCCN=C(N)N)NC(=O)CN)C(=O)N[C@@H](Cc1c[nH]c2ccccc12)C(=O)N[C@@H](CCCCN)C(=O)N[C@@H](CO)C(=O)N[C@@H](CC(C)C)C(=O)N[C@@H](CC(C)C)C(=O)N[C@@H](CCCCN)C(=O)N[C@@H](CC(N)=O)C(=O)N[C@H](C(=O)NCC(=O)N[C@@H](CCCCN)C(=O)N[C@@H](C)C(N)=O)C(C)C` [GRKKRRQRRRGALWKSLLKNVGKA], the MIC was 4 µM (≈ 11.4 µg/mL) in experiment [12]; at least 32 µM in experiment [13]; 4 µM (≈ 11.4 µg/mL) in experiment [14]; 8 µM (≈ 22.9 µg/mL) in [15]; at least 32 µM in experiment [16]; 8 µM (≈ 22.9 µg/mL) in [6]. For the same compound, in experiment [17], the MIC was 16 µM (≈ 45.8 µg/mL).
Take `C[C@H](NC(=O)[C@H](Cc1ccccc1)NC(=O)[C@H](CCCCN)NC(=O)[C@H](CCCCN)NC(=O)[C@H](C)NC(=O)[C@H](Cc1ccccc1)NC(=O)[C@H](CCCCN)NC(=O)[C@H](CCCCN)NC(=O)[C@H](C)NC(=O)[C@H](Cc1ccccc1)NC(=O)[C@H](CCCCN)NC(=O)[C@H](CCCCN)NC(=O)[C@H](C)NC(=O)[C@H](Cc1ccccc1)NC(=O)[C@H](CCCCN)NC(=O)[C@H](CCCCN)NC(=O)[C@H](C)NC(=O)[C@H](Cc1ccccc1)NC(=O)[C@@H](N)CCCCN)C(=O)N[C@@H](CCCCN)C(=O)O` [KFAKKFAKKFAKKFAKKFAK]: the minimal inhibitory concentration (MIC) was 4.73 µM (≈ 11.3 µg/mL) in experiment [18]; 44.4 µM (≈ 106 µg/mL) in experiment [19]; 3.35 µM (≈ 8 µg/mL) in [20]; at least 105 µM in [21]; 9.46 µM (≈ 22.6 µg/mL) in [22].
For `NCCCC[C@H](NC(=O)[C@H](Cc1ccccc1)NC(=O)[C@H](CCCCN)NC(=O)[C@H](CCCCN)NC(=O)[C@H](Cc1ccccc1)NC(=O)[C@H](CCCCN)NC(=O)[C@H](CCCCN)NC(=O)[C@H](Cc1ccccc1)NC(=O)[C@H](CCCCN)NC(=O)[C@H](CCCCN)NC(=O)[C@H](Cc1ccccc1)NC(=O)[C@H](CCCCN)NC(=O)[C@H](CCCCN)NC(=O)[C@H](Cc1ccccc1)NC(=O)[C@H](CCCCN)NC(=O)[C@H](CCCCN)NC(=O)[C@H](Cc1ccccc1)NC(=O)[C@H](CCCCN)NC(=O)[C@H](CCCCN)NC(=O)[C@H](Cc1ccccc1)NC(=O)[C@H](CCCCN)NC(=O)[C@H](CCCCN)NC(=O)[C@H](Cc1ccccc1)NC(=O)[C@H](CCCCN)NC(=O)[C@H](CCCCN)NC(=O)[C@H](Cc1ccccc1)NC(=O)[C@@H](N)CCCCN)C(=O)O` [KFKKFKKFKKFKKFKKFKKFKKFKKFK] the same measures were 24.1 µM (≈ 88 µg/mL), 96.9 µM (≈ 354 µg/mL), at least 34.2 µM, at least 48.4 µM and 6.2 µM (≈ 22.6 µg/mL).
Turning to `CC[C@H](C)[C@H](NC(=O)CNC(=O)[C@H](CCCCN)NC(=O)[C@H](Cc1c[nH]c2ccccc12)NC(=O)[C@H](CC(C)C)NC(=O)[C@H](CC(C)C)NC(=O)[C@H](Cc1c[nH]c2ccccc12)NC(=O)[C@H](CCCCN)NC(=O)CNC(=O)[C@@H](NC(=O)[C@@H](N)CCCCN)[C@@H](C)CC)C(=O)N[C@@H](CCCCN)C(=O)N[C@@H](CCCCN)C(=O)N[C@H](C(=O)NCC(=O)N[C@@H](CCCCN)C(=O)N[C@@H](Cc1c[nH]c2ccccc12)C(=O)N[C@@H](CC(C)C)C(N)=O)[C@@H](C)CC` [KIGKWLLWKGIKKIGKWL], the minimal inhibitory concentration (MIC) in the experiment with Candida albicans is 5.66 µM and 4 µM; in experiment [4], 4 µM (≈ 8.78 µg/mL); in experiment [7], 8 µM (≈ 17.6 µg/mL); in [10] it was 2 µM (≈ 4.39 µg/mL).
In the case of `CC(C)C[C@H](NC(=O)[C@H](CCCCN)NC(=O)[C@H](CCCCN)NC(=O)[C@H](CC(C)C)NC(=O)[C@H](CC(C)C)NC(=O)[C@H](CCCCN)NC(=O)[C@H](CCCCN)NC(=O)[C@H](CC(C)C)NC(=O)[C@H](CC(C)C)NC(=O)[C@H](CCCCN)NC(=O)[C@H](CCCCN)NC(=O)[C@H](CC(C)C)NC(=O)[C@H](CC(C)C)NC(=O)[C@H](CCCCN)NC(=O)[C@H](CCCCN)NC(=O)[C@H](CC(C)C)NC(=O)[C@H](CC(C)C)NC(=O)[C@H](CCCCN)NC(=O)[C@H](CCCCN)NC(=O)[C@@H](N)CC(C)C)C(=O)O` [LKKLLKKLLKKLLKKLLKKL], the minimum inhibitory concentration (MIC) in experiment [18] was at least 36.2 µM; in experiment [19] it was over 206 µM; in [20], 25.5 µM (≈ 62 µg/mL); in experiment [21] it was at least 103 µM; in [22], at least 36.2 µM.
